Results taken from patent publication US4029778A (priority 1969, dated 1977).
Like-named read-outs stand apart in the source and are kept apart here.

Legend:
Ehrlich ascites tumor [1] = details: in vivo, ip; for Lethality: 1000 mg/kg
Hepatoma 130 tumor [2] = details: in vivo, ip
[3] = tested on: Harding-Passey Melanoma tumor
in vivo [4] = details: ip
tumors = assay: antitumor activity (statement in words); assay type: in vivo
Description: (§1) The esters of the invention have shown effect in inhibiting the growth of several tumors, e.g., Ehrlich ascites, Hepatoma AH 130, lymphocytic leukemia (L1210), Walker 256 and Harding-Passey Melanoma according to the procedure of Cancer Chemotherapy National Service Center (Ref.: Cancer Chemotherapy Reports, December 1962).
The esters of this invention were tested for effectiveness in inhibiting the growth of Ehrlich ascites, Hepatoma 130, lymphocytic leukemia (L 1210), and Harding-Passey Melanoma, and Walker 256 tumors. The administration was by the intraperitoneal route in each case.

[5] = Hepatoma 130 tumor growth inhibition and lethality, oral (Table 5); assay type: in vivo; details: in vivo, 1 × dose
Text: as §1

Hepatoma 130 = assay: as above; assay type: in vivo; details: 1 × dose
Text: as §1

[6] = Harding-Passey Melanoma growth inhibition and lethality, oral (Table 5); assay type: in vivo; details: in vivo, 11 × dose
Text: as §1

Harding-Passey Melanoma = assay: as above; assay type: in vivo; details: 11 × dose
Text: as §1

[7] = Walker 256 tumor growth inhibition and lethality, oral (Table 5); assay type: in vivo; details: in vivo
Text: as §1

Walker 256 = assay: as above; assay type: in vivo
Text: as §1

in vivo [8] = details: ip; remark: listed apart in the source
Walker 256 tumor [9] = details: in vivo
Hepatoma 130 tumor [10] = assay: animal or person; details: ip, read-out: ED50 (Effect)
[11] = tested on: Harding-Passey Melanoma tumor; assay: animal or person; details: ip, read-out: ED50 (Effect)
Walker 256 tumor [12] = assay: animal or person; details: Walker 256, ip, read-out: ED50 (Effect)
Ehrlich ascites tumor [13] = assay: animal or person; details: ip, read-out: ED50 (Effect)

Question: Which “ED50 (Effect)” value (Ehrlich ascites tumor [1]) does the source give for C[C@]12C=CC(=O)C=C1CC[C@@H]1[C@@H]2C(=O)C[C@@]2(C)[C@H]1CC[C@]2(O)C(=O)COC(=O)c1ccc(N(CCCl)CCCl)cc1 [prednisone-21-p-/N-bis(β-chloroethyl)-amino/-benzoate] here?
Answer: The value was 12 mg/kg.

Question: And the Lethality (Ehrlich ascites tumor [1])?
Answer: The Lethality was “no toxicity”.

Question: What about the “ED50 (Effect)” value (Hepatoma 130 tumor [2]) of the same compound?
Answer: Its value is 58 mg/kg.

Question: And the Lethality (Hepatoma 130 tumor [2]; 1000 mg/kg)?
Answer: Its Lethality is “no toxicity”.

Question: What about the “ED50 (Effect)” value ([3]; intraperitoneal, 11 × dose) of the same compound?
Answer: The value was 18 mg/kg.

Question: And the LD50 (in vivo [4])?
Answer: The LD50 was 97 mg/kg.

Question: With C[C@]12C=CC(=O)C=C1CC[C@@H]1[C@@H]2[C@@H](O)C[C@@]2(C)[C@H]1CC[C@]2(O)C(=O)COC(=O)C(N)Cc1ccc(N(CCCl)CCCl)cc1 (stereo partly drawn) [prednisolone-21-3'-{p-[N-bis-(β-chloroethyl)-amino]-phenyl}-2'-aminopropionate] as the compound, how does the antitumor activity (tumors) read?
Answer: Its antitumor activity is “desired antitumor activity”.

Question: Which LD50 [5] does the source give for O=C(O)CCCc1ccc(N(CCCl)CCCl)cc1 [Chlorambucil, reference compound] here?
Answer: The LD50 was 55 mg/kg.

Question: What about the “ED50 (Effect)” value (Hepatoma 130) of the same compound?
Answer: Its value is over 31 mg/kg.

Question: What about the LD50 [6] of the same compound?
Answer: Its LD50 is 7 mg/kg.

Question: And the “ED50 (Effect)” value (Harding-Passey Melanoma)?
Answer: The value was 2.3 mg/kg.

Question: And the LD50 [7]?
Answer: The LD50 was 13.5 mg/kg.

Question: What about the “ED50 (Effect)” value (Walker 256) of the same compound?
Answer: Its value is 0.42 mg/kg.

Question: And the “ED50 (Effect)” value (Hepatoma 130 tumor [2])?
Answer: Its value is 4.3 mg/kg.

Question: And the LD50 (in vivo [8])?
Answer: The LD50 was 30 mg/kg.

Question: With C[C@]12C=CC(=O)C=C1CC[C@@H]1[C@@H]2[C@@H](O)C[C@@]2(C)[C@H]1CC[C@]2(O)C(=O)COC(=O)Cc1ccc(N(CCCl)CCCl)cc1 [prednisolone-21-p-/N-bis(β-chloroethyl)-amino/-phenylacetate] as the compound, how does the “ED50 (Effect)” value (Hepatoma 130 tumor [2]) read?
Answer: Its value is 27 mg/kg.

Question: And the LD50 (in vivo [8])?
Answer: The LD50 was 560 mg/kg.

Question: For Cc1ccc(C(=O)OCC(=O)[C@@]2(O)CC[C@H]3[C@@H]4CCC5=CC(=O)CC[C@]5(C)[C@H]4[C@@H](O)C[C@@]32C)cc1N(CCCl)CCCl [hydrocortisone-21-3'-[N-bis-(β-chloroethyl)-amino]-4'-methylbenzoate], which antitumor activity (tumors) is on record?
Answer: Its antitumor activity is “desired antitumor activity”.

Question: Which LD50 [5] does the source give for C[C@]12C=CC(=O)C=C1CC[C@@H]1[C@@H]2[C@@H](O)C[C@@]2(C)[C@H]1CC[C@]2(O)C(=O)COC(=O)CCCc1ccc(N(CCCl)CCCl)cc1 [prednisolone-21-4'-[p-/N-bis(β-chloroethyl)-amino/-phenyl]-butyrate] here?
Answer: Its LD50 is 380 mg/kg.

Question: And the T.I. (Hepatoma 130)?
Answer: The T.I. was 2.5.

Question: What about the ED50 (Hepatoma 130; read-out: ED50 (Effect)) of the same compound?
Answer: The ED50 was 155 mg/kg.

Question: And the LD50 [6]?
Answer: Its LD50 is 40 mg/kg.

Question: And the T.I. (Harding-Passey Melanoma)?
Answer: The T.I. was 6.7.

Question: What about the ED50 (Harding-Passey Melanoma; read-out: ED50 (Effect)) of the same compound?
Answer: The ED50 was 6 mg/kg.

Question: And the LD50 [7]?
Answer: Its LD50 is 64 mg/kg.

Question: And the T.I. (Walker 256)?
Answer: Its T.I. is 64.

Question: What about the ED50 (Walker 256; Walker 256, read-out: ED50 (Effect)) of the same compound?
Answer: Its ED50 is 1 mg/kg.

Question: What about the T.I. (Hepatoma 130 tumor [2]) of the same compound?
Answer: Its T.I. is 45.

Question: And the T.I. ([3]; intraperitoneal, 11 × dose)?
Answer: Its T.I. is 2.2.

Question: And the T.I. (Walker 256 tumor [9]; ip)?
Answer: Its T.I. is 29.

Question: What about the ED50 (Hepatoma 130 tumor [10]) of the same compound?
Answer: Its ED50 is 5.8 mg/kg.

Question: And the ED50 [11]?
Answer: The ED50 was 3.1 mg/kg.

Question: What about the ED50 (Walker 256 tumor [12]) of the same compound?
Answer: The ED50 was 1.1 mg/kg.

Question: Which T.I. (Ehrlich ascites tumor [1]) does the source give for C[C@]12C=CC(=O)C=C1CC[C@@H]1[C@@H]2[C@@H](O)C[C@@]2(C)[C@H]1CC[C@]2(O)C(=O)CO [Prednisolone, pregna-1,4-dien-11β,17α ,21-triol-3,20-dion, reference compound] here?
Answer: The T.I. was over 8.3.

Question: What about the Lethality (Ehrlich ascites tumor [1]) of the same compound?
Answer: Its Lethality is “no toxicity”.

Question: What about the T.I. (Hepatoma 130 tumor [2]) of the same compound?
Answer: The T.I. was 6.6.

Question: And the T.I. ([3]; in vivo, ip)?
Answer: Its T.I. is under 2.5.

Question: What about the Effect ([3]; in vivo, ip, 243 mg/kg) of the same compound?
Answer: The Effect was “no effect”.

Question: And the T.I. (Walker 256 tumor [9]; ip)?
Answer: The T.I. was 3.0.

Question: What about the ED50 (Ehrlich ascites tumor [13]) of the same compound?
Answer: Its ED50 is 120 mg/kg.

Question: And the ED50 (Hepatoma 130 tumor [10])?
Answer: Its ED50 is 118 mg/kg.

Question: And the ED50 (Walker 256 tumor [12])?
Answer: Its ED50 is 214 mg/kg.

Question: For Cc1ccc(C(=O)OCC(=O)[C@@]2(O)CC[C@H]3[C@@H]4CCC5=CC(=O)C=C[C@]5(C)[C@H]4[C@@H](O)C[C@@]32C)cc1N(CCCl)CCCl [prednisolone-21-3'-[N-bis-(β-chloroethyl)-amino]-4'-methyl-benzoate], which antitumor activity (tumors) is on record?
Answer: Its antitumor activity is “having the desired antitumor activity”.

Question: For C[C@]12CCC(=O)C=C1CC[C@@H]1[C@@H]2[C@@H](O)C[C@@]2(C)[C@H]1CC[C@]2(O)C(=O)COC(=O)C(N)Cc1ccc(N(CCCl)CCCl)cc1 (stereo partly drawn) [hydrocortisone-21-3'-{p-[N-bis-(β-chloroethyl)-amino]-phenyl}-2'-aminopropionate], which antitumor activity (tumors) is on record?
Answer: Its antitumor activity is “desired antitumor activity”.

Question: With CC(=O)NC(Cc1ccc(N(CCCl)CCCl)cc1)C(=O)OCC(=O)[C@@]1(O)CC[C@H]2[C@@H]3CCC4=CC(=O)CC[C@]4(C)[C@H]3[C@@H](O)C[C@@]21C (stereo partly drawn) [hydrocortisone-21-3'-{p-[N-bis-(β-chloroethyl)-amino]-phenyl}-2'-acetamido-propionate] as the compound, how does the “antitumor activity against Walker 256 tumors” value (Walker 256 tumor [9]) read?
Answer: The value was “same activity”.

Question: Which antitumor activity (tumors) does the source give for C[C@]12CCC(=O)C=C1CC[C@@H]1[C@@H]2[C@@H](O)C[C@@]2(C)[C@H]1CC[C@]2(O)C(=O)COC(=O)CCCc1ccc(N(CCCl)CCCl)cc1 [hydrocortisone-21-4'-{p-[N-bis-(β-chloroethyl)-amino]-phenyl}-butyrate] here?
Answer: The antitumor activity was “desired antitumor activity”.

Question: Which results are given for C[C@]12CCC(=O)C=C1CC[C@@H]1[C@@H]2[C@@H](O)C[C@@]2(C)[C@H]1CC[C@]2(O)C(=O)COC(=O)c1ccc(N(CCCl)CCCl)cc1 [hydrocortisone-21-p-/N-bis(β -chloroethyl)-amino/-benzoate]?
Answer: ED50 (Effect) (Ehrlich ascites tumor [1]): 15 mg/kg; ED50 (Effect) (Hepatoma 130 tumor [2]): 28 mg/kg; ED50 (Effect) ([3]; intraperitoneal, 11 × dose): 19 mg/kg

Question: With C[C@]12C=CC(=O)C=C1CC[C@@H]1[C@@H]2[C@@H](O)C[C@@]2(C)[C@H]1CC[C@]2(O)C(=O)COC(=O)c1ccc(N(CCCl)CCCl)cc1 [prednisolone-21-p-/N-bis(β-chloroethyl)-amino/-benzoate] as the compound, how does the antitumor activity (tumors) read?
Answer: Its antitumor activity is “desired antitumor activity”.

Question: What about the “ED50 (Effect)” value (Ehrlich ascites tumor [1]) of the same compound?
Answer: Its value is 13 mg/kg.

Question: And the Lethality (Ehrlich ascites tumor [1])?
Answer: Its Lethality is “no toxicity”.

Question: What about the “ED50 (Effect)” value (Hepatoma 130 tumor [2]) of the same compound?
Answer: Its value is 5.6 mg/kg.

Question: And the “ED50 (Effect)” value ([3]; intraperitoneal, 11 × dose)?
Answer: The value was 3.4 mg/kg.

Question: What about the “ED50 (Effect)” value (Walker 256 tumor [9]; ip) of the same compound?
Answer: Its value is 9.6 mg/kg.

Question: Which “antitumor activity against Walker 256 tumors” value (Walker 256 tumor [9]) does the source give for CC(=O)NC(Cc1ccc(N(CCCl)CCCl)cc1)C(=O)OCC(=O)[C@@]1(O)CC[C@H]2[C@@H]3CCC4=CC(=O)C=C[C@]4(C)[C@H]3[C@@H](O)C[C@@]21C (stereo partly drawn) [prednisolone-21-3'-{p-[N-bis-(β-chloroethyl)-amino]-phenyl}-2'-acetamido-propionate] here?
Answer: Its value is “active antitumor agent”.
